≈ marks a conversion by molar mass, not a printed value.
Columns and labels:
Format in all cases: functional, cell-based
CCRF-CEM = assay: Cytostatic activity against Homo sapiens (human) CEM cells after 72 hr by coulter counter analysis
MOLT-4 = assay: Cytostatic activity against Homo sapiens (human) Molt4/C8 cells after 72 hr by coulter counter analysis; conditions: MOLT-4, 72 h
L1210 = assay: Cytostatic activity against Mus musculus (mouse) L1210 cells after 48 hr by coulter counter analysis; conditions: L1210, 48 h

Row | SMILES | IC50 (CCRF-CEM) | IC50 (MOLT-4) | IC50 (L1210)
1 | O=C(O)/C(=C/c1ccccc1Cl)c1ccccc1 | 93 µg/mL (≈ 359 µM) | 37 µg/mL (≈ 143 µM) | 76 µg/mL (≈ 294 µM)
2 | O=C(O)/C(=C/c1ccccc1F)c1ccccc1 | > 200 µg/mL | 89 µg/mL (≈ 367 µM) | > 200 µg/mL
3 | CNC(=O)/C(=C/c1ccccc1Cl)c1ccccc1 | 60 µg/mL (≈ 221 µM) | 77 µg/mL (≈ 283 µM) | 65 µg/mL (≈ 239 µM)
4 | CNC(=O)/C(=C/c1ccc(OC)cc1)c1ccccc1 | 128 µg/mL (≈ 479 µM) | 166 µg/mL (≈ 621 µM) | 68 µg/mL (≈ 254 µM)
5 | CCN(CC)C(=O)/C(=C/c1ccccc1Cl)c1ccccc1 | 18 µg/mL (≈ 57.4 µM) | 14 µg/mL (≈ 44.6 µM) | 24 µg/mL (≈ 76.5 µM)
6 | CCNC(=O)/C(=C/c1ccccc1)c1ccccc1 | 26 µg/mL (≈ 103 µM) | 112 µg/mL (≈ 446 µM) | 132 µg/mL (≈ 525 µM)
7 | CCNC(=O)/C(=C/c1ccc(OC)cc1)c1ccccc1 | 116 µg/mL (≈ 412 µM) | 150 µg/mL (≈ 533 µM) | 148 µg/mL (≈ 526 µM)
8 | CNC(=O)/C(=C/c1ccccc1F)c1ccccc1 | 89 µg/mL (≈ 349 µM) | 72 µg/mL (≈ 282 µM) | 85 µg/mL (≈ 333 µM)
9 | CNC(=O)/C(=C/c1ccccc1O)c1ccccc1 | > 200 µg/mL | > 200 µg/mL | > 200 µg/mL
10 | COC(=O)/C(=C/c1ccccc1Cl)c1ccccc1 | 19 µg/mL (≈ 69.7 µM) | 16 µg/mL (≈ 58.7 µM) | 25 µg/mL (≈ 91.7 µM)
11 | COC(=O)/C(=C/c1ccc(OC)cc1)c1ccccc1 | 71 µg/mL (≈ 265 µM) | 71 µg/mL (≈ 265 µM) | 66 µg/mL (≈ 246 µM)
12 | Fc1ccc(/N=C/c2ccccc2Cl)cc1Cl | 10 µg/mL (≈ 37.3 µM) | 3.9 µg/mL (≈ 14.5 µM) | 6.4 µg/mL (≈ 23.9 µM)
13 | Fc1ccc(/N=C/c2ccccc2Cl)cc1 | 2.1 µg/mL (≈ 8.99 µM) | 0.77 µg/mL (≈ 3.3 µM) | 6 µg/mL (≈ 25.7 µM)
14 | Clc1ccccc1/C=N/c1ccc(Br)cc1 | 4.5 µg/mL (≈ 15.3 µM) | 1.5 µg/mL (≈ 5.09 µM) | 2.1 µg/mL (≈ 7.13 µM)
15 | Fc1ccc(/N=C/c2cccs2)cc1Cl | 25 µg/mL (≈ 104 µM) | 16 µg/mL (≈ 66.7 µM) | 3.2 µg/mL (≈ 13.3 µM)
16 | COc1ccc(/C=C/c2ccc(F)cc2)cc1 | 156 µg/mL (≈ 683 µM) | > 200 µg/mL | 26 µg/mL (≈ 114 µM)
17 | Fc1ccc(/C=C/c2ccccc2F)cc1 | 83 µg/mL (≈ 384 µM) | 61 µg/mL (≈ 282 µM) | 62 µg/mL (≈ 287 µM)
18 | Cc1ccc(/C=C/c2ccccc2F)cc1 | 78 µg/mL (≈ 367 µM) | 30 µg/mL (≈ 141 µM) | 72 µg/mL (≈ 339 µM)
19 | Fc1ccc(/C=C/c2ccccc2)cc1 | > 200 µg/mL | > 200 µg/mL | > 200 µg/mL
20 | COc1ccc(/C=C/c2ccc(C)cc2)cc1 | > 200 µg/mL | > 200 µg/mL | > 200 µg/mL
21 | O=C(O)/C(=C/c1ccccc1O)c1ccccc1 | > 200 µg/mL | > 200 µg/mL | > 200 µg/mL
22 | Cc1ccc(/C=C/c2ccc(N(C)C)cc2)cc1 | > 200 µg/mL | > 200 µg/mL | 143 µg/mL (≈ 602 µM)
23 | N[C@@H](Cc1ccc(N(CCCl)CCCl)cc1)C(=O)O [MELPHALAN] | 2.5 µg/mL (≈ 8.19 µM) | 3.2 µg/mL (≈ 10.5 µM) | 2.1 µg/mL (≈ 6.88 µM)

Reference: ChEMBL document CHEMBL3044679, “Synthesis and biological evaluation of some stilbene derivatives” (Med Chem Res, 2011)
